Reference: patent publication EP2468270A1, “(R)-2-(3-fluoro-4-phenylphenyl)propionic acid for use in the treatment of skin diseases” (GALENpharma GmbH, priority 2010, dated 2012)

Tests used:
[1] = system: CGRP (Calcitonin Gene-Related Peptide); settings: isolated rat skin; Averbeck et al. 2003; cited from earlier work
Alzheimer's disease = settings: extensive clinical Phase III studies; WO 2005/065069, Imbimbo 2009; cited from earlier work
[2] = system: BDNF (brain-derived neurotrophic factor); assay: in vitro whole blood culture test system, zymosan activation: BDNF release; format: cell-based; settings: human whole blood from 3 donors, 0.39-100 µg tarenflurbil/ml
Method: In an in vitro whole blood culture test system with human whole blood from 3 donors in each case, pre-incubation was carried out for 2 hours with 0.39, 1.56, 6.25, 25 and 100 µg tarenflurbil/ml whole blood before activation with zymosan (agent for producing sterile inflammations) took place. In total the following 37 parameters were measured which allow a broad overview of the reaction of the leucocytes under inflammatory conditions and thus also of the effects of tarenflurbil in such an environment: • 1. […] Brain-derived neurotrophic factor (BDNF) • 3.

[3] = system: TGFß (transforming growth factor ß); assay: in vitro whole blood culture test system, zymosan activation: TGFß release; format: cell-based; settings: human whole blood from 3 donors, 0.39-100 µg tarenflurbil/ml
Method: (§1) In an in vitro whole blood culture test system with human whole blood from 3 donors in each case, pre-incubation was carried out for 2 hours with 0.39, 1.56, 6.25, 25 and 100 µg tarenflurbil/ml whole blood before activation with zymosan (agent for producing sterile inflammations) took place. In total the following 37 parameters were measured which allow a broad overview of the reaction of the leucocytes under inflammatory conditions and thus also of the effects of tarenflurbil in such an environment: • 1. Amphiregulin • 2. Brain-derived neurotrophic factor (BDNF) • 3. Interleukin-1 alpha (IL-1α) • 4. IL-1β • 5. IL-1 receptor antagonist (IL-1Ra) • 6. IL-2 • 7. IL-3 • 8. IL-4 • 9. IL-5 • 10. IL-6 • 11. IL-7 • 12. IL-8 • 13. IL-10 • 14. IL-12, p40 subunit (IL-12p40) • 15. IL-12p70 • 16. IL-15 • 17. IL-17 • 18. IL-18 • 19. IL-23 • 20. Epiregulin • 21. Eotaxin (Eot.) • 22. Factor VII (F. VII) • 23. Granulocyte-monocytes colony stimulating factor (GM-CSF) • 24. Interferon gamma (IFNγ) • 25. Intercellular adhesion molecule-1 (ICAM-1) • 26. Monocyte chemoattractand protein-1 (MCP-1) • 27. Migration inhibitory protein-1 alpha (MIP-1α) • 28. MIP-1ß • 29. Matrix-metalloproteinase-2 (MMP-2) • 30. MMP-3 • 31. MMP-9 • 32. Oncostatin M (OSM) • 33. Stem-cell factor (SCF) • 34. […] (TGFα) • 35. Tumor necrosis factor alpha (TNFα) • 36. TNFß • 37. Vascular endothelial growth factor (VEGF)

isolated rat skin = settings: Pethö et al. 2001, the authors attributed the effect to S-flurbiprofen impurity; cited from earlier work
PGE2 (prostaglandin E2) = assay: in vitro whole blood culture test system, zymosan activation: PGE2 formation; format: cell-based; settings: human whole blood from 3 donors, 2 hours pre-incubation with 0.39, 1.56, 6.25, 25 and 100 µg tarenflurbil/ml, then zymosan
Method: as §1

LT-C4/E4/D4 = assay: in vitro whole blood culture test system, zymosan activation: leukotriene synthesis; format: cell-based; settings: human whole blood, in allergy sufferers (Donor B), 0.39-100 µg tarenflurbil/ml, Figure 1
Method: In an in vitro whole blood culture test system with human whole blood from 3 donors in each case, pre-incubation was carried out for 2 hours with 0.39, 1.56, 6.25, 25 and 100 µg tarenflurbil/ml whole blood before activation with zymosan (agent for producing sterile inflammations) took place. […] A group determination of LT-C4/E4/D4 was carried out.

[4] = in humans; Geisslinger et al., J Clin Pharmacol. 1996; cited from earlier work
[5] = in mice; Leipold et al., Chirality 2004; cited from earlier work
UV erythema (sunburn) = assay: UV erythema test, twice the minimum erythema dose (Example 2); format: in vivo, human; settings: four test subjects, skin of the back, topical spray 0.1, 0.25, 1 and 4% (w/w), visual score and spectroscopic colour measurement, 0-48 hours
Method: The clinical-pharmacological studies of the following Examples 2 to 4 were carried out on healthy adults as model for non-immunological inflammation. In a preliminary test on the skin of the back involving a group of four test subjects, the "minimum erythema dose" following irradiation with a standardized daylight irradiation apparatus ([…]) was established. In the main test 8 areas of the skin of the back of each subject were irradiated with twice the "minimum erythema dose" and then treated with tarenflurbil spray with 0.1, 0.25, 1 and 4% tarenflurbil (w/w) as well as the associated placebo formulations and the comparison preparations (triamcinolone acetonide 0.2% (w/w); mometasone furoate solution 0.1% (w/w)). […] The effect of the test preparation with the highest tarenflurbil concentration was much more marked than with the comparison solutions triamcinolone acetonide 0.2% (w/w) or mometasone furoate 0.1% (w/w).

Row | SMILES | inhibition of the release of CGRP [1] | efficacy against Alzheimer's disease (Alzheimer's disease) | BDNF (brain-derived neurotrophic factor) release [2] | TGFß (transforming growth factor ß) release [3] | effect on bradykinin-induced nociceptor sensitization to heat (isolated rat skin) | PGE2 (prostaglandin E2) formation (PGE2 (prostaglandin E2)) | leukotriene synthesis (LT-C4/E4/D4) (LT-C4/E4/D4) | conversion to S-flurbiprofen [4] | bioinversion into S-flurbiprofen [5] | degree of erythema (UV erythema) (UV erythema (sunburn))
1 | C[C@H](C(=O)O)c1ccc(-c2ccccc2)c(F)c1 [S-flurbiprofen] | effective |  |  |  |  |  |  |  |  | 
2 | C[C@@H](C(=O)O)c1ccc(-c2ccccc2)c(F)c1 [tarenflurbil, (R)-2-(3-fluoro-4-phenylphenyl)propionic acid] | ineffective | ineffective | dose-dependent reduction | dose-dependent reduction | effective | dose-dependent reduction | dose-dependent reduction | not to be converted to S-flurbiprofen | considerable bioinversion | dose-dependent reduction
